The results in this text go back to PubChem BioAssay AID1745844 (Carcinogenic Potency Database (CPDB), 2022).

Values joined by “and” are separate entries in the source; they are usually repeats but may differ in a detail not shown here. Equal values may be shown once. Active and inactive are the calls of the source. No rule for the calls is given here.

In this series the test system is rodent lifetime carcinogenesis bioassay, tumor incidence TD50. The series is described as follows: chronic cancer bioassays in animals – CPDB, compiled studies (AID 1745844).
Where [1] appears, read: rat, strain Fischer 344, males, in feed, site: any site (literature study), lesion: several types, types named in the paper, dosed 78 weeks, study length 104 weeks.
Where [2] appears, read: mouse, strain B6C3F1, females, in feed, site: any site (literature study), lesion: several types, types named in the paper, dosed 104 weeks, study length 104 weeks.
[3] abbreviates: mouse, strain B6C3F1, females, in feed, site: lung, lesion: alveolar/bronchiolar adenoma + alveolar/bronchiolar carcinoma, dosed 104 weeks, study length 104 weeks.
Setting [4] is: rat, strain Fischer 344, females, in feed, site: any site (literature study), lesion: several types, types named in the paper, dosed 104 weeks, study length 104 weeks.

For `Nc1ccc(S(=O)(=O)c2ccc(N)cc2)cc1`, the carcinogen call runs as follows: (mouse, strain B6C3F1, females, in feed, site: any site (literature study), lesion: several types, types named in the paper, dosed 78 weeks, study length 107 weeks) “negative (inactive)”; (mouse, strain B6C3F1, males, in feed, site: any site (literature study), lesion: several types, types named in the paper, dosed 78 weeks, study length 107 weeks) “negative (inactive)”; (rat, strain Fischer 344, females, in feed, site: any site (literature study), lesion: several types, types named in the paper, dosed 78 weeks, study length 105 weeks) “negative (inactive)”. Besides, the TD50 (rat, strain Fischer 344, males, in feed, site: all sites, lesion: lymphoma, dosed 78 weeks, study length 104 weeks) is 50.1 mg/kg/day; the TD50 under setting [1] was 22.4 mg/kg/day; the TD50 (rat, strain Fischer 344, males, in feed, site: peritoneum, lesion: fibrosarcoma + sarcoma, NOS, dosed 78 weeks, study length 104 weeks) is 56.3 mg/kg/day; the TD50 (rat, strain Fischer 344, males, in feed, site: peritoneum, lesion: fibrosarcoma, dosed 78 weeks, study length 104 weeks) was 148 mg/kg/day; the TD50 (rat, strain Fischer 344, males, in feed, site: peritoneum, lesion: sarcoma, NOS, dosed 78 weeks, study length 104 weeks) was determined as 91.3 mg/kg/day; the TD50 (rat, strain Fischer 344, males, in feed, site: spleen, lesion: fibroma, dosed 78 weeks, study length 104 weeks) is 28.5 mg/kg/day. Moreover, the TD50 is 22.4 mg/kg/day (rat, strain Fischer 344, males, in feed, site: spleen, lesion: fibrosarcoma + fibroma + sarcoma, NOS, dosed 78 weeks, study length 104 weeks); 167 mg/kg/day (rat, strain Fischer 344, males, in feed, site: spleen, lesion: fibrosarcoma, dosed 78 weeks, study length 104 weeks); 170 mg/kg/day (rat, strain Fischer 344, males, in feed, site: spleen, lesion: sarcoma, NOS, dosed 78 weeks, study length 104 weeks).

In the case of `CCCNC(=O)NS(=O)(=O)c1ccc(Cl)cc1`, the carcinogen call was “negative (inactive)” under setting [2]; “negative (inactive)” (mouse, strain B6C3F1, males, in feed, site: any site (literature study), lesion: several types, types named in the paper, dosed 104 weeks, study length 104 weeks); “negative (inactive)” under setting [4]; “negative (inactive)” (rat, strain Fischer 344, males, in feed, site: any site (literature study), lesion: several types, types named in the paper, dosed 103 weeks, study length 103 weeks). Also, the TD50 under setting [3] amounted to 1440 mg/kg/day.

For the molecule `Nc1ccc(Cl)c(N)c1`, the TD50 by setting is: (mouse, strain B6C3F1, females, in feed, site: any site (literature study), lesion: several types, types named in the paper, dosed 78 weeks, study length 95 weeks) 15400 mg/kg/day; (mouse, strain B6C3F1, females, in feed, site: liver, lesion: hepatocellular adenoma + hepatocellular carcinoma + neoplastic nodule, dosed 78 weeks, study length 95 weeks) 1230 mg/kg/day; (mouse, strain B6C3F1, females, in feed, site: liver, lesion: hepatocellular adenoma + hepatocellular carcinoma, dosed 78 weeks, study length 95 weeks) 1230 mg/kg/day; (mouse, strain B6C3F1, females, in feed, site: liver, lesion: hepatocellular carcinoma, dosed 78 weeks, study length 95 weeks) 1780 mg/kg/day; (mouse, strain B6C3F1, males, in feed, site: any site (literature study), lesion: several types, types named in the paper, dosed 78 weeks, study length 94 weeks) 7320 mg/kg/day (inactive); (mouse, strain B6C3F1, males, in feed, site: liver, lesion: hepatocellular adenoma + hepatocellular carcinoma + neoplastic nodule, dosed 78 weeks, study length 94 weeks) 7050 mg/kg/day. For the same molecule, the TD50 (rat, strain Fischer 344, females, in feed, site: any site (literature study), lesion: several types, types named in the paper, dosed 78 weeks, study length 104 weeks) was 479 mg/kg/day; the TD50 (rat, strain Fischer 344, females, in feed, site: liver, lesion: hepatocellular adenoma + hepatocellular carcinoma + neoplastic nodule, dosed 78 weeks, study length 104 weeks) came out at 2680 mg/kg/day; the TD50 (rat, strain Fischer 344, females, in feed, site: uterus, lesion: endometrial stromal polyp, dosed 78 weeks, study length 104 weeks) was 175 mg/kg/day (inactive); the TD50 (rat, strain Fischer 344, males, in feed, site: adrenal gland, lesion: pheochromocytoma, dosed 78 weeks, study length 104 weeks) was 315 mg/kg/day; the TD50 under setting [1] came to 422 mg/kg/day; the TD50 (rat, strain Fischer 344, males, in feed, site: liver, lesion: hepatocellular adenoma + hepatocellular carcinoma + neoplastic nodule, dosed 78 weeks, study length 104 weeks) turned out to be 1570 mg/kg/day.

For `Nc1cc(S(=O)(=O)[O-])cc2cc(S(=O)(=O)[O-])c(N=Nc3ccc(-c4ccc(N=Nc5c(S(=O)(=O)[O-])cc6cc(S(=O)(=O)[O-])cc(N)c6c5O)c(O)c4)cc3O)c(O)c12.[Cu].[Cu].[Na+].[Na+].[Na+].[Na+]`, the TD50 by setting is: (mouse, strain B6C3F1, females, in feed, site: any site (literature study), lesion: several types, types named in the paper, dosed 103 weeks, study length 106 weeks) 1530 mg/kg/day; (mouse, strain B6C3F1, females, in feed, site: liver, lesion: hepatoblastoma + hepatocellular carcinoma, dosed 103 weeks, study length 106 weeks) 4000 mg/kg/day; (mouse, strain B6C3F1, females, in feed, site: liver, lesion: hepatocellular adenoma + hepatoblastoma + hepatocellular carcinoma, dosed 103 weeks, study length 106 weeks) 711 mg/kg/day; (mouse, strain B6C3F1, females, in feed, site: liver, lesion: hepatocellular adenoma + hepatocellular carcinoma, dosed 103 weeks, study length 106 weeks) 711 mg/kg/day; (mouse, strain B6C3F1, females, in feed, site: liver, lesion: hepatocellular adenoma, dosed 103 weeks, study length 106 weeks) 774 mg/kg/day; (mouse, strain B6C3F1, females, in feed, site: liver, lesion: hepatocellular carcinoma, dosed 103 weeks, study length 106 weeks) 4570 mg/kg/day. The TD50 reads like this: (mouse, strain B6C3F1, males, in feed, site: any site (literature study), lesion: several types, types named in the paper, dosed 103 weeks, study length 105 weeks) 1910 mg/kg/day; (mouse, strain B6C3F1, males, in feed, site: jejunum, lesion: carcinoma, dosed 103 weeks, study length 105 weeks) 20300 mg/kg/day; (mouse, strain B6C3F1, males, in feed, site: kidney, lesion: tubule adenoma, dosed 103 weeks, study length 105 weeks) 195000 mg/kg/day; (mouse, strain B6C3F1, males, in feed, site: liver, lesion: hepatocellular adenoma + hepatoblastoma + hepatocellular carcinoma, dosed 103 weeks, study length 105 weeks) 1080 mg/kg/day; (mouse, strain B6C3F1, males, in feed, site: liver, lesion: hepatocellular adenoma + hepatocellular carcinoma, dosed 103 weeks, study length 105 weeks) 1080 mg/kg/day; (mouse, strain B6C3F1, males, in feed, site: liver, lesion: hepatocellular adenoma, dosed 103 weeks, study length 105 weeks) 1210 mg/kg/day. Besides, the TD50 is 2990 mg/kg/day (mouse, strain B6C3F1, males, in feed, site: liver, lesion: hepatocellular carcinoma, dosed 103 weeks, study length 105 weeks); 653 mg/kg/day (rat, strain Fischer 344, females, in feed, site: any site (literature study), lesion: several types, types named in the paper, dosed 103 weeks, study length 104 weeks); 83.5 mg/kg/day (inactive) (rat, strain Fischer 344, females, in feed, site: uterus, lesion: endometrial stromal polyp, dosed 103 weeks, study length 104 weeks); 921 mg/kg/day (rat, strain Fischer 344, males, in feed, site: any site (literature study), lesion: several types, types named in the paper, dosed 103 weeks, study length 104 weeks); 2350 mg/kg/day (rat, strain Fischer 344, males, in feed, site: forestomach, lesion: squamous-cell carcinoma + squamous-cell papilloma, dosed 103 weeks, study length 104 weeks); 3140 mg/kg/day (rat, strain Fischer 344, males, in feed, site: forestomach, lesion: squamous-cell papilloma, dosed 103 weeks, study length 104 weeks). Moreover, the TD50 is 5050 mg/kg/day (rat, strain Fischer 344, males, in feed, site: liver, lesion: hepatocellular adenoma + hepatoblastoma + hepatocellular carcinoma, dosed 103 weeks, study length 104 weeks); 1380 mg/kg/day (rat, strain Fischer 344, males, in feed, site: palate, lesion: basosquamous tumor, benign + squamous-cell carcinoma + squamous-cell papilloma, dosed 103 weeks, study length 104 weeks); 11500 mg/kg/day (rat, strain Fischer 344, males, in feed, site: palate, lesion: basosquamous tumor, benign, dosed 103 weeks, study length 104 weeks); 1570 mg/kg/day (rat, strain Fischer 344, males, in feed, site: palate, lesion: squamous-cell carcinoma + squamous-cell papilloma, dosed 103 weeks, study length 104 weeks); 9510 mg/kg/day (rat, strain Fischer 344, males, in feed, site: palate, lesion: squamous-cell carcinoma, dosed 103 weeks, study length 104 weeks); 1920 mg/kg/day (rat, strain Fischer 344, males, in feed, site: palate, lesion: squamous-cell papilloma, dosed 103 weeks, study length 104 weeks). In addition, the carcinogen call (mouse, strain B6C3F1, males, in feed, site: kidney, lesion: tubule adenoma + tubule carcinoma, dosed 103 weeks, study length 105 weeks) is on record as “e”; the carcinogen call (mouse, strain B6C3F1, males, in feed, site: kidney, lesion: tubule carcinoma, dosed 103 weeks, study length 105 weeks) is on record as “e”; the carcinogen call (rat, strain Fischer 344, males, in feed, site: forestomach, lesion: squamous-cell carcinoma, dosed 103 weeks, study length 104 weeks) is “e”.

With `CCN(CC)C(C)=O`, the TD50 runs as follows: (rat, strain Wistar, males, by gavage, site: any site (literature study), lesion: several types, types named in the paper, dosed 73 weeks, study length 73 weeks) 11.8 mg/kg/day; (rat, strain Wistar, males, by gavage, site: kidney, lesion: papillary transitional-cell carcinoma, dosed 73 weeks, study length 73 weeks) 8.85 mg/kg/day.

Consider `Cc1cc(O)c2c(c1)C(=O)c1cc(O)cc(O)c1C2=O`, for which the TD50 under setting [2] was 548 mg/kg/day (inactive); the TD50 under setting [3] turned out to be 65800 mg/kg/day; the TD50 (mouse, strain B6C3F1, males, in feed, site: kidney, lesion: tubule adenoma + tubule carcinoma, dosed 104 weeks, study length 104 weeks) was 965 mg/kg/day and 885 mg/kg/day; the TD50 (rat, strain Fischer 344, females, in feed, site: Zymbal's gland, lesion: carcinoma, dosed 104 weeks, study length 104 weeks) was determined as 1970 mg/kg/day; the TD50 under setting [4] is 797 mg/kg/day; the TD50 (rat, strain Fischer 344, females, in feed, site: liver, lesion: hepatocellular adenoma + hepatoblastoma + hepatocellular carcinoma, dosed 104 weeks, study length 104 weeks) worked out at 4300 mg/kg/day. The carcinogen call (rat, strain Fischer 344, males, in feed, site: any site (literature study), lesion: several types, types named in the paper, dosed 104 weeks, study length 104 weeks) was “negative (inactive)”.

With `CN(N=O)c1cccnc1`, the carcinogen call (rat, strain BD VI, females, by gavage, site: any site (literature study), lesion: benign tumor, dosed 116 weeks, study length 116 weeks) was “negative (inactive)”; the carcinogen call (rat, strain BD VI, females, by gavage, site: any site (literature study), lesion: several types, types named in the paper, dosed 116 weeks, study length 116 weeks) is “negative (inactive)”; the carcinogen call (rat, strain BD VI, females, by gavage, site: liver, lesion: several types, types named in the paper, dosed 116 weeks, study length 116 weeks) was “negative (inactive)”. The TD50 (rat, strain BD VI, females, by gavage, site: any site (literature study), lesion: malignant tumor, dosed 116 weeks, study length 116 weeks) was 6.09 mg/kg/day (inactive).

Regarding `CCN(CC)CCCNC(=O)Cn1ncc(-c2ccccc2)c1-c1ccccc1`, the carcinogen call runs as follows: (rat, strain Charles River CD (Sprague-Dawley), females, by gavage, site: liver, lesion: one or several types, types not named, dosed 52 weeks, study length 52 weeks) “negative (inactive)”; (rat, strain Charles River CD (Sprague-Dawley), males, by gavage, site: liver, lesion: one or several types, types not named, dosed 52 weeks, study length 52 weeks) “negative (inactive)”.

As a reminder, the TD50 is the 50% point of the dose-response relation for the toxic effect studied.
